The NIST ThermoML archive (doi:10.1016/j.fluid.2016.12.017)

Assay: mean ionic activity coefficient (dimensionless); mn = molality of the nth substance listed, in mol/kg
Details: 101 kPa, Liquid, galvanic cell

CCn1cc[n+](C)c1.[Br-] [1-ethyl-3-methylimidazolium bromide] + O
mean ionic activity coefficient
Details	298.2 K	308.2 K
m1 = 0.01	0.888	0.895
m1 = 0.0199	0.846	0.859
m1 = 0.0397	0.791	0.813
m1 = 0.0592	0.753	0.781
m1 = 0.0785	0.723	0.757
m1 = 0.1001	0.696	0.735
m1 = 0.1995	0.611	0.665
m1 = 0.3996	0.523	0.585
m1 = 0.6004	0.474	0.534
m1 = 0.7996	0.441	0.497
m1 = 1.001	0.417	0.467
m1 = 1.2	0.398	0.442
m1 = 1.4	0.382	0.42
m1 = 1.6	0.367	0.4
m1 = 1.8	0.354	0.382
m1 = 2	0.341	0.366
m1 = 2.2	–	0.351
